In US20150072967A1, “TAUROURSODEOXYCHOLIC ACID ATTENTUATES OR ABOLISHES FORMATION AND DEPOSITION OF AMYLOID-B PEPTIDE” (Metselex, Inc., priority 2012, published 2015):

Key:
hepatocytes = conditions: DNA microarray; cited from earlier work
[1] = cited from earlier work
APP/PS1 mice [2] = assay: Iba-I immunostaining (activated microglia); assay type: in vivo, mouse
Description: (§1) Transgenic mice and TUDCA treatment. APP/PS1 double-transgenic mice express human APP containing the KM670/671NL Swedish double mutation and human PS 1 carrying the L166P mutation under the control of a neuron-specific murine Thy-1 minigene promoter. The two transgenes cosegregate in these mice. APP/PS1 mice were maintained on a C57BL/6J genetic background and genotyped by PCR analysis of genomic DNA from tail biopsies. All animals were kept in standard animal cages under conventional laboratory conditions (12 h light/dark cycle, 22° C.), with ad libitum access to food and water. The animals were randomized for therapy trials and coded, and the operators remained double blinded to which treatment they received, until the completion of data collection. Male APP/PS1 transgenic mice and wild-type littermates were randomly assigned into four groups: TUDCA-treated and untreated (control) APP/PS1 mice and TUDCA-treated and untreated (control) wild-type mice. […]
(§2) Image analysis and semiquantification of immunofluorescence. Images were acquired with an Axioskop fluorescence microscope (Carl Zeiss GmbH, Hamburg, Germany). Semiquantitative analysis of mean fluorescence intensities (MFIs) of GFAP, Iba-I, and MAP2 were performed using NIH Image J software. […]

APP/PS1 mice [3] = assay: Aβ immunohistochemistry (6E10), Aβ plaque number in brain; assay type: in vivo, mouse; conditions: TUDCA-treated APP/PS1 mice vs untreated transgenic mice
Description: as §1
(§3) Image analysis and semiquantification of immunofluorescence. Images were acquired with an Axioskop fluorescence microscope (Carl Zeiss GmbH, Hamburg, Germany). Semiquantitative analysis of mean fluorescence intensities (MFIs) of GFAP, Iba-I, and MAP2 were performed using NIH Image J software. […] An intensity threshold was set and kept constant for all images analyzed. […]

APP/PS1 mice [4] = assay: Recognition, spatial and contextual fear memory; assay type: in vivo, mouse; conditions: transgenic mice vs control transgenic mice
Description: Transgenic mice and TUDCA treatment. APP/PS1 double-transgenic mice express human APP containing the KM670/671NL Swedish double mutation and human PS 1 carrying the L166P mutation under the control of a neuron-specific murine Thy-1 minigene promoter. The two transgenes cosegregate in these mice. APP/PS1 mice were maintained on a C57BL/6J genetic background and genotyped by PCR analysis of genomic DNA from tail biopsies. All animals were kept in standard animal cages under conventional laboratory conditions (12 h light/dark cycle, 22° C.), with ad libitum access to food and water. The animals were randomized for therapy trials and coded, and the operators remained double blinded to which treatment they received, until the completion of data collection. Male APP/PS1 transgenic mice and wild-type littermates were randomly assigned into four groups: TUDCA-treated and untreated (control) APP/PS1 mice and TUDCA-treated and untreated (control) wild-type mice. Animals were fed a diet of standard laboratory chow supplemented with either 0.4% (wt/wt) TUDCA (sodium salt; Prodotti Chimici e Alimentari S.p.A., Basaluzzo, Italy), or no bile acid, custom made by Harlan (Harlan Laboratories Models, S.L., Barcelona, Spain). Treatment was started when the mice were 2 months old and continued for 6 months. […]

APP/PS1 mice [5] = assay: Sandwich ELISA of Aβ1-40 and Aβ1-42 in brain extracts; assay type: in vivo, mouse; conditions: hippocampus and frontal cortex of APP/PS1 mice; p<0.01
Description: as §1
Sandwich ELISA. […] Total Aβ1-40 or Aβ1-42 content was measured by sandwich ELISA (Millipore) according to the manufacturer's instructions. Values were normalized to the respective total protein concentration and expressed as % of wild-type control.

APP/PS1 mice [6] = assay: GFAP immunofluorescence (activated astrocytes); assay type: in vivo, mouse; conditions: hippocampus and frontal cortex; TUDCA-treated APP/PS1 mice; p<0.05
Description: as §1, §3

APP/PS1 mice [7] = assay: MAP2 immunoreactivity (neuronal integrity); assay type: in vivo, mouse
Description: as §1, §2

γ-secretase = γ-secretase activity / APP processing by immunoblot of APP-CTFs and total Aβ; assay type: in vivo, mouse; conditions: brain tissue
Description: (§4) Transgenic mice and TUDCA treatment. APP/PS1 double-transgenic mice express human APP containing the KM670/671NL Swedish double mutation and human PS 1 carrying the L166P mutation under the control of a neuron-specific murine Thy-1 minigene promoter. The two transgenes cosegregate in these mice. APP/PS1 mice were maintained on a C57BL/6J genetic background and genotyped by PCR analysis of genomic DNA from tail biopsies. All animals were kept in standard animal cages under conventional laboratory conditions (12 h light/dark cycle, 22° C.), with ad libitum access to food and water. The animals were randomized for therapy trials and coded, and the operators remained double blinded to which treatment they received, until the completion of data collection. Male APP/PS1 transgenic mice and wild-type littermates were randomly assigned into four groups: TUDCA-treated and untreated (control) APP/PS1 mice and TUDCA-treated and untreated (control) wild-type mice. Animals were fed a diet of standard laboratory chow supplemented with either 0.4% (wt/wt) TUDCA (sodium salt; Prodotti Chimici e Alimentari S.p.A., Basaluzzo, Italy), or no bile acid, custom made by Harlan (Harlan Laboratories Models, S.L., Barcelona, Spain). Treatment was started when the mice were 2 months old and continued for 6 months. The dose and duration of TUDCA, whose pharmacokinetics has been extensively studied in rodents, were chosen based on pilot studies using APP/PS1 mice and other animal studies.
γ-secretase activity. Assessment of γ-secretase activity was performed by detection of the ˜7 KDa carboxyl terminal fragment (CTF)-γ cleavage product of APP. Briefly, 60 μg of total protein extracts were resolved electrophoretically in 10-20% Tris-Tricine gels (BioRad), and CTF-γ (and CTF-β) identified using an anti-APP, C-terminal rabbit polyclonal antibody (Sigma-Aldrich; 1:2000). After stripping, membranes were incubated with the primary mouse monoclonal antibody reactive to Aβ (6E10; Signet; 1:1000) to detect total Aβ peptide. Immunoreactivities were visualized as described above.

[8] = system: CTGF, A2M, APOE, SORLA expression; assay: Real-time PCR of lipid-metabolism mediators in brain; assay type: in vivo, mouse
Description: as §4
Real-time PCR. Total RNA from dissected hippocampus and frontal cortex was isolated with TRIzol (Invitrogen), according to the manufacturer's instructions. Samples were homogenized in TRIzol using a motor-driven Bio-vortexer (No 1083; Biospec Products, Bartlesfield, Okla.) and disposable RNAse/DNAse free sterile pestles (Thermo Scientific). […] Real-time quantitative PCR analysis was performed in the 7300 Real-Time PCR System (Applied Biosystems, Foster City, Calif., USA), using SYBR Green PCR master mix (Fermentas International Inc., Glen Burnie, Md., USA). Triplicate reactions were run per sample. The expression levels relative to GAPDH were calculated using the ΔΔCt method. TUDCA-untreated wild-type mice were used as the calibrator. The n-fold change in expression was obtained using the formula: 2^−ΔΔCt.

APP/PS1 mice [9] = assay: Thioflavin T staining of amyloid plaque burden in brain sections; assay type: in vivo, mouse
Description: Transgenic mice and TUDCA treatment. APP/PS1 double-transgenic mice express human APP containing the KM670/671NL Swedish double mutation and human PS 1 carrying the L166P mutation under the control of a neuron-specific murine Thy-1 minigene promoter. The two transgenes cosegregate in these mice. APP/PS1 mice were maintained on a C57BL/6J genetic background and genotyped by PCR analysis of genomic DNA from tail biopsies. All animals were kept in standard animal cages under conventional laboratory conditions (12 h light/dark cycle, 22° C.), with ad libitum access to food and water. […]
Image analysis and semiquantification of immunofluorescence. Images were acquired with an Axioskop fluorescence microscope (Carl Zeiss GmbH, Hamburg, Germany). Semiquantitative analysis of mean fluorescence intensities (MFIs) of GFAP, Iba-I, and MAP2 were performed using NIH Image J software. […] An intensity threshold was set and kept constant for all images analyzed. MFI per square millimeter area was calculated by dividing the MFI units by the area of outlined regions and is presented as a bar graph. The total number of thioflavin- and Aβ-positive plaques in the hippocampus and frontal cortex was counted and presented as plaque number per square millimeter.

[10] = TUDCA-treated APP/PS1 mice vs control transgenic mice
[11] = APP/PS1 mice hippocampus, p<0.05

C[C@H](CCC(=O)NCCS(=O)(=O)O)[C@H]1CC[C@H]2[C@@H]3[C@@H](O)C[C@@H]4C[C@H](O)CC[C@]4(C)[C@H]3CC[C@]12C [TUDCA, tauroursodeoxycholic acid]
downregulation of A2M expression (hepatocytes): greater than 10 fold | downregulation of CTGF expression (hepatocytes): greater than 10 fold | oral bioavailability [1]: orally bioavailable | Iba-I immunoreactivity (APP/PS1 mice [2]; TUDCA-treated APP/PS1 mice relative to control APP/PS1 mice, p<0.05): significantly less | reactive microglia around amyloid plaques (Iba-I/thioflavin double-staining) (APP/PS1 mice [2]; brains of TUDCA-treated APP/PS1 mice vs control APP/PS1 mice): fewer reactive microglia | decrease of Aβ plaque number (APP/PS1 mice [3]; frontal cortex, p<0.05): 40% | decrease of Aβ plaque number (APP/PS1 mice [3]; hippocampus, p<0.01): ~65% | recognition, and spatial and contextual fear memory (APP/PS1 mice [4]): improved | Aβ1-40 levels (APP/PS1 mice [5]): significantly decreased | Aβ1-42 levels (APP/PS1 mice [5]): significantly decreased | GFAP immunoreactivity (APP/PS1 mice [6]): decreased | integrity of the neuronal fibers around amyloid plaques (MAP2/amyloid double staining) (APP/PS1 mice [7]; brains of TUDCA-treated APP/PS1 mice): significant improvement | MAP2 immunoreactivity (APP/PS1 mice [7]; hippocampus and frontal cortex of APP/PS1 mice, p<0.05): prevented the loss | CTF-β levels (γ-secretase; TUDCA-fed transgenic mice vs control transgenic mice): decreased | total Aβ levels (γ-secretase; TUDCA-treated APP/PS1 mice vs control APP/PS1 mice): decreased | full-length APP levels (γ-secretase; [10]): remained unchanged | production of CTF-γ (γ-secretase; [10]): decrease | A2M expression (mRNA) ([8]; APP/PS1 mice frontal cortex): trend for decreased | APOE expression (mRNA) ([8]; APP/PS1 mice frontal cortex): trend for decreased | CTGF expression (mRNA) ([8]; APP/PS1 mice frontal cortex, p<0.05): significantly decreased | SORLA expression (mRNA) ([8]; APP/PS1 mice hippocampus): slightly increasing | A2M expression (mRNA) [8, 11]: significantly decreased | APOE expression (mRNA) [8, 11]: significantly decreased | CTGF expression (mRNA) [8, 11]: significantly decreased | amyloid deposits (thioflavin staining) (APP/PS1 mice [9]; TUDCA-treated wild-type mice): absent | thioflavin plaque number (APP/PS1 mice [9]; hippocampus and frontal cortex, APP/PS1 mice fed 0.4% (wt/wt) TUDCA for 6 months vs control transgenic mice, p<0.01): marked reduction
